Source: the NIST ThermoML archive (doi:10.1016/j.tca.2006.05.019)
Values joined by “and” are separate entries in the source; they are usually repeats but may differ in a detail not shown here. Equal values may be shown once. ± gives the expanded uncertainty stated by the source.

Assay: molar heat capacity at constant pressure
Settings: 101.33 kPa, Crystal, Vacuum adiabatic calorimetry

O=P([O-])([O-])[O-].[Lu+3] [lutetium phosphate]
Settings | molar heat capacity at constant pressure
6 K | 0.0357 ± 0.01 J/K/mol
6.51 K | 0.0482 ± 0.01 J/K/mol
7.08 K | 0.04711 ± 0.01 J/K/mol
7.62 K | 0.06861 ± 0.011 J/K/mol
8 K | 0.0845 ± 0.011 J/K/mol
8.12 K | 0.1033 ± 0.011 J/K/mol
8.6 K | 0.1229 ± 0.011 J/K/mol
9.16 K | 0.1232 ± 0.011 J/K/mol
9.76 K | 0.1438 ± 0.011 J/K/mol
10 K | 0.165 ± 0.011 J/K/mol
10.35 K | 0.1797 ± 0.011 J/K/mol
10.95 K | 0.1984 ± 0.012 J/K/mol
11.52 K | 0.2437 ± 0.012 J/K/mol
12 K | 0.286 ± 0.012 J/K/mol
12.05 K | 0.2931 ± 0.012 J/K/mol
12.7 K | 0.351 ± 0.013 J/K/mol
13.5 K | 0.4239 ± 0.013 J/K/mol
14 K | 0.455 ± 0.013 J/K/mol
14.29 K | 0.5003 ± 0.014 J/K/mol
15.07 K | 0.5881 ± 0.014 J/K/mol
15.96 K | 0.7241 ± 0.015 J/K/mol
16 K | 0.676 ± 0.015 J/K/mol
16.71 K | 0.8304 ± 0.016 J/K/mol
17.45 K | 0.9728 ± 0.016 J/K/mol
18 K | 0.962 ± 0.016 J/K/mol
18.21 K | 1.085 ± 0.017 J/K/mol
18.94 K | 1.201 ± 0.017 J/K/mol
19.66 K | 1.318 ± 0.018 J/K/mol
20 K | 1.32 ± 0.02 J/K/mol
21.37 K | 1.733 ± 0.02 J/K/mol
23.76 K | 2.354 ± 0.022 J/K/mol
25 K | 2.54 ± 0.02 J/K/mol
26.16 K | 3.067 ± 0.024 J/K/mol
28.57 K | 3.861 ± 0.025 J/K/mol
30 K | 4.26 ± 0.05 J/K/mol
30.99 K | 4.819 ± 0.05 J/K/mol
33.41 K | 5.784 ± 0.052 J/K/mol
35 K | 6.39 ± 0.05 J/K/mol
35.85 K | 6.862 ± 0.054 J/K/mol
38.3 K | 7.989 ± 0.057 J/K/mol
40 K | 8.83 ± 0.06 J/K/mol
40.76 K | 9.131 ± 0.059 J/K/mol
43.21 K | 10.48 ± 0.06 J/K/mol
45 K | 11.45 ± 0.06 J/K/mol
45.69 K | 11.91 ± 0.06 J/K/mol
48.16 K | 13.16 ± 0.07 J/K/mol
50 K | 14.18 ± 0.07 J/K/mol
50.64 K | 14.44 ± 0.07 J/K/mol
53.13 K | 15.87 ± 0.07 J/K/mol
55 K | 16.93 ± 0.07 J/K/mol
55.63 K | 17.16 ± 0.08 J/K/mol
58.13 K | 18.55 ± 0.08 J/K/mol
60 K | 19.67 ± 0.08 J/K/mol
60.65 K | 19.95 ± 0.08 J/K/mol
63.14 K | 21.38 ± 0.08 J/K/mol
65 K | 22.38 ± 0.09 J/K/mol
65.64 K | 22.73 ± 0.09 J/K/mol
68.13 K | 23.87 ± 0.09 J/K/mol
70 K | 25.05 ± 0.09 J/K/mol
70.62 K | 25.39 ± 0.09 J/K/mol
73.11 K | 26.96 ± 0.09 J/K/mol
75 K | 27.68 ± 0.1 J/K/mol
75.6 K | 28.21 ± 0.1 J/K/mol
78.1 K | 29.35 ± 0.1 J/K/mol
80 K | 30.26 ± 0.1 J/K/mol
80.6 K | 30.69 ± 0.1 J/K/mol
83.1 K | 31.8 ± 0.1 J/K/mol
83.67 K | 31.97 ± 0.1 J/K/mol
85 K | 32.8 ± 0.11 J/K/mol
87.39 K | 33.75 ± 0.11 J/K/mol
90 K | 35.28 ± 0.24 J/K/mol
91 K | 35.61 ± 0.24 J/K/mol
94.62 K | 37.52 ± 0.24 J/K/mol
95 K | 37.72 ± 0.24 J/K/mol
98.23 K | 39.26 ± 0.24 J/K/mol
100 K | 40.1 ± 0.24 J/K/mol
101.84 K | 41.01 ± 0.24 J/K/mol
105.45 K | 42.73 ± 0.24 J/K/mol
109.04 K | 44.39 ± 0.24 J/K/mol
110 K | 44.74 ± 0.24 J/K/mol
112.63 K | 45.93 ± 0.25 J/K/mol
116.21 K | 47.44 ± 0.25 J/K/mol
119.79 K | 49.06 ± 0.25 J/K/mol
120 K | 49.17 ± 0.25 J/K/mol
123.37 K | 50.6 ± 0.25 J/K/mol
126.95 K | 52.07 ± 0.25 J/K/mol
130 K | 53.39 ± 0.25 J/K/mol
130.52 K | 53.52 ± 0.25 J/K/mol
134.08 K | 54.89 ± 0.26 J/K/mol
134.32 K | 54.86 ± 0.26 J/K/mol
137.64 K | 56.24 ± 0.26 J/K/mol
137.89 K | 56.62 ± 0.26 J/K/mol
140 K | 57.42 ± 0.26 J/K/mol
141.14 K | 57.72 ± 0.26 J/K/mol
144.67 K | 59.01 ± 0.26 J/K/mol
148.2 K | 60.39 ± 0.26 J/K/mol
150 K | 61.25 ± 0.26 J/K/mol
151.73 K | 61.98 ± 0.26 J/K/mol
152.2 K | 62.31 ± 0.26 J/K/mol
155.77 K | 63.71 ± 0.26 J/K/mol
159.34 K | 65.02 ± 0.27 J/K/mol
160 K | 64.87 ± 0.27 J/K/mol
162.89 K | 66.21 ± 0.27 J/K/mol
166.44 K | 67.34 ± 0.27 J/K/mol
169.99 K | 68.5 ± 0.27 J/K/mol
170 K | 68.32 ± 0.27 J/K/mol
173.53 K | 69.66 ± 0.27 J/K/mol
177.02 K | 70.76 ± 0.27 J/K/mol
180 K | 71.58 ± 0.27 J/K/mol
180.54 K | 71.85 ± 0.27 J/K/mol
184.06 K | 72.87 ± 0.27 J/K/mol
187.57 K | 73.85 ± 0.27 J/K/mol
190 K | 74.68 ± 0.27 J/K/mol
191.08 K | 75.02 ± 0.28 J/K/mol
194.58 K | 76.04 ± 0.28 J/K/mol
198.07 K | 77.09 ± 0.28 J/K/mol
200 K | 77.61 ± 0.28 J/K/mol
201.56 K | 78.14 ± 0.28 J/K/mol
205.03 K | 78.99 ± 0.28 J/K/mol
208.5 K | 79.97 ± 0.28 J/K/mol
210 K | 80.41 ± 0.28 J/K/mol
211.96 K | 80.72 ± 0.28 J/K/mol
215.42 K | 81.51 ± 0.28 J/K/mol
218.87 K | 82.45 ± 0.28 J/K/mol
220 K | 83.06 ± 0.28 J/K/mol
222.31 K | 83.48 ± 0.28 J/K/mol
225.73 K | 84.25 ± 0.28 J/K/mol
229.14 K | 85.1 ± 0.29 J/K/mol
230 K | 85.6 ± 0.29 J/K/mol
233.68 K | 86.38 ± 0.29 J/K/mol
235.82 K | 87.08 ± 0.29 J/K/mol
237.13 K | 87.2 ± 0.3 J/K/mol
239.2 K | 87.62 ± 0.29 J/K/mol
240 K | 88.01 ± 0.29 J/K/mol
242.56 K | 88.31 ± 0.29 J/K/mol
245.94 K | 89.1 ± 0.29 J/K/mol
249.32 K | 90.16 ± 0.29 J/K/mol
250 K | 90.31 ± 0.29 J/K/mol
250.77 K | 90.59 ± 0.29 J/K/mol
254.14 K | 91.42 ± 0.29 J/K/mol
255.94 K | 91.8 ± 0.29 J/K/mol
259.22 K | 92.4 ± 0.3 J/K/mol
260 K | 92.51 ± 0.29 J/K/mol
260.67 K | 92.92 ± 0.29 J/K/mol
263.97 K | 93.72 ± 0.29 J/K/mol
267.27 K | 94.37 ± 0.29 J/K/mol
270 K | 94.6 ± 0.29 J/K/mol
270.55 K | 94.95 ± 0.3 J/K/mol
273.81 K | 95.59 ± 0.3 J/K/mol
277.04 K | 96.19 ± 0.3 J/K/mol
278.55 K | 96.28 ± 0.3 J/K/mol and 96.26 ± 0.3 J/K/mol
280 K | 96.61 ± 0.3 J/K/mol
280.25 K | 96.75 ± 0.3 J/K/mol
281.69 K | 96.92 ± 0.3 J/K/mol and 96.9 ± 0.3 J/K/mol
283.44 K | 97.38 ± 0.3 J/K/mol
284.59 K | 97.37 ± 0.3 J/K/mol
286.58 K | 97.91 ± 0.3 J/K/mol
287.72 K | 97.96 ± 0.3 J/K/mol
289.7 K | 98.45 ± 0.3 J/K/mol
290 K | 98.53 ± 0.3 J/K/mol
290.83 K | 98.55 ± 0.3 J/K/mol
292.79 K | 99.14 ± 0.3 J/K/mol
293.91 K | 99.28 ± 0.3 J/K/mol
295.89 K | 99.69 ± 0.3 J/K/mol
296.98 K | 99.82 ± 0.3 J/K/mol
298.92 K | 100.3 ± 0.3 J/K/mol
300 K | 100.4 ± 0.3 J/K/mol
300.03 K | 100.5 ± 0.3 J/K/mol
303.01 K | 100.9 ± 0.3 J/K/mol
306.01 K | 101.4 ± 0.3 J/K/mol
309.71 K | 101.9 ± 0.3 J/K/mol
310 K | 102.1 ± 0.3 J/K/mol
312.4 K | 102.4 ± 0.3 J/K/mol
315.23 K | 102.9 ± 0.3 J/K/mol
318.03 K | 103.6 ± 0.3 J/K/mol
320 K | 103.8 ± 0.3 J/K/mol
